Experimental data as given in ChEMBL document CHEMBL5724914, “Linking interpersonal differences in gut microbiota composition and drug biotransformation activity” (2024).

Tests used:
[1] = (§1) The drug is tested on WLS-350 corresponding to human gut metagenome with ENA study accession number: PRJEB37062 and ENA sample accession number: ERS12561789 for biotransformation under anaerobic condition. The drug concentrations were measured over 9 timepoints collected between 0 and 24 hours of incubation by liquid-chromatography-coupled mass spectrometry (LC–MS); conditions: 2 µM
[2] = as §1, with “WLS-098” for “WLS-350”, “ERS12561754” for “ERS12561789”; conditions: 2 µM
[3] = as §1, with “Z-013” for “WLS-350”, “rabbit” for “human”, “ERS12561813” for “ERS12561789”; conditions: 2 µM
[4] = as §1, with “WLS-082” for “WLS-350”, “ERS12561751” for “ERS12561789”; conditions: 2 µM
[5] = as §1, with “Z-010” for “WLS-350”, “to” for “to human gut”, “ERS12561810” for “ERS12561789”; conditions: 2 µM
[6] = human gut metagenome, 24 h, 2 µM
[7] = as §1, with “Z-018” for “WLS-350”, “pig” for “human”, “ERS12561817” for “ERS12561789”; conditions: 2 µM
[8] = as §1, with “WLS-240” for “WLS-350”, “ERS12561773” for “ERS12561789”; conditions: 2 µM
[9] = as §1, with “WLS-370” for “WLS-350”, “ERS12561793” for “ERS12561789”; conditions: 2 µM
[10] = as §1, with “Z-029” for “WLS-350”, “rat” for “human”, “ERS12561828” for “ERS12561789”; conditions: 2 µM
[11] = human gut metagenome, 24 h, 2 µM; remark: listed apart in the source
[12] = human gut metagenome, 24 h, 2 µM; remark: listed apart in the source
[13] = human gut metagenome, 24 h, 2 µM; remark: listed apart in the source
[14] = human gut metagenome, 24 h, 2 µM; remark: listed apart in the source
[15] = as §1, with “WLS-038” for “WLS-350”, “ERS12561745” for “ERS12561789”; conditions: 2 µM
[16] = human gut metagenome, 24 h, 2 µM; remark: listed apart in the source
[17] = as §1, with “Z-002” for “WLS-350”, “rabbit” for “human”, “ERS12561802” for “ERS12561789”; conditions: 2 µM
[18] = human gut metagenome, 24 h, 2 µM; remark: listed apart in the source
[19] = as §1, with “Z-028” for “WLS-350”, “mouse” for “human”, “ERS12561827” for “ERS12561789”; conditions: 2 µM
[20] = as §1, with “Z-012” for “WLS-350”, “to” for “to human gut”, “ERS12561812” for “ERS12561789”; conditions: 2 µM
Note: call rule not given here.

| Compound | Bacterial Biotransformation [1] | Bacterial Biotransformation [2] | Bacterial Biotransformation [3] | Bacterial Biotransformation [4] | Bacterial Biotransformation [5] | Bacterial Biotransformation [6] | Bacterial Biotransformation [7] | Bacterial Biotransformation [8] | Bacterial Biotransformation [9] | Bacterial Biotransformation [10] | Bacterial Biotransformation [11] | Bacterial Biotransformation [12] | Bacterial Biotransformation [13] | Bacterial Biotransformation [14] | Bacterial Biotransformation [15] | Bacterial Biotransformation [16] | Bacterial Biotransformation [17] | Bacterial Biotransformation [18] | Bacterial Biotransformation [19] | Bacterial Biotransformation [20] |
| --- | --- | --- | --- | --- | --- | --- | --- | --- | --- | --- | --- | --- | --- | --- | --- | --- | --- | --- | --- | --- |
| NC(CO)(CO)CO.O=C(c1ccccc1)c1ccc2n1CCC2C(=O)O (stereo not given) [KETOROLAC TROMETHAMINE] | Compound metabolized | Compound metabolized | Compound NOT metabolized | Compound metabolized | Compound metabolized | Compound metabolized | Compound NOT metabolized | Compound metabolized | Compound metabolized | Compound metabolized | Compound metabolized | Compound NOT metabolized | Compound metabolized | Compound metabolized | Compound metabolized | Compound metabolized | Compound metabolized | Compound metabolized | Compound NOT metabolized | Compound NOT metabolized |
| CC[C@H](C)C(=O)O[C@H]1C[C@@H](C)C=C2C=C[C@H](C)[C@H](CC[C@@H]3C[C@@H](O)CC(=O)O3)[C@H]21 [LOVASTATIN] | Compound NOT metabolized | Compound NOT metabolized | Compound NOT metabolized | Compound NOT metabolized | Compound NOT metabolized | Compound NOT metabolized | Compound metabolized | Compound NOT metabolized | Compound NOT metabolized | Compound NOT metabolized | Compound NOT metabolized | Compound NOT metabolized | Compound NOT metabolized | Compound NOT metabolized | Compound NOT metabolized | Compound NOT metabolized | Compound NOT metabolized | Compound NOT metabolized | Compound metabolized | Compound NOT metabolized |
| CNC(=C[N+](=O)[O-])NCCSCc1csc(CN(C)C)n1 [NIZATIDINE] | Compound NOT metabolized | Compound metabolized | Compound NOT metabolized | Compound NOT metabolized | Compound NOT metabolized | Compound metabolized | Compound NOT metabolized | Compound NOT metabolized | Compound NOT metabolized | Compound NOT metabolized | Compound metabolized | Compound NOT metabolized | Compound metabolized | Compound NOT metabolized | Compound NOT metabolized | Compound metabolized | Compound NOT metabolized | Compound NOT metabolized | Compound NOT metabolized | Compound NOT metabolized |
| COc1ccc2[nH]c([S+]([O-])Cc3ncc(C)c(OC)c3C)nc2c1 (stereo not given) [OMEPRAZOLE] | Compound metabolized | Compound metabolized | Compound NOT metabolized | Compound metabolized | Compound metabolized | Compound metabolized | Compound NOT metabolized | Compound metabolized | Compound metabolized | Compound metabolized | Compound metabolized | Compound metabolized | Compound metabolized | Compound metabolized | Compound metabolized | Compound metabolized | Compound NOT metabolized | Compound metabolized | Compound metabolized | Compound NOT metabolized |
| O=C(O)CCc1nc(-c2ccccc2)c(-c2ccccc2)o1 [OXAPROZIN] | Compound metabolized | Compound metabolized | Compound NOT metabolized | Compound metabolized | Compound metabolized | Compound metabolized | Compound metabolized | Compound metabolized | Compound metabolized | Compound NOT metabolized | Compound metabolized | Compound metabolized | Compound metabolized | Compound metabolized | Compound metabolized | Compound metabolized | Compound metabolized | Compound metabolized | Compound NOT metabolized | Compound NOT metabolized |
| CC(C)(C)NC[C@H](O)COc1ccccc1C1CCCC1.CC(C)(C)NC[C@H](O)COc1ccccc1C1CCCC1.O=S(=O)(O)O [PENBUTOLOL SULFATE] | Compound metabolized | Compound metabolized | Compound NOT metabolized | Compound metabolized | Compound metabolized | Compound metabolized | Compound metabolized | Compound metabolized | Compound metabolized | Compound NOT metabolized | Compound metabolized | Compound metabolized | Compound metabolized | Compound metabolized | Compound metabolized | Compound metabolized | Compound metabolized | Compound metabolized | Compound NOT metabolized | Compound NOT metabolized |
| CCOc1ccc(NC(C)=O)cc1 [PHENACETIN] | Compound NOT metabolized | Compound NOT metabolized | Compound NOT metabolized | Compound NOT metabolized | Compound NOT metabolized | Compound NOT metabolized | Compound NOT metabolized | Compound NOT metabolized | Compound NOT metabolized | Compound NOT metabolized | Compound NOT metabolized | Compound NOT metabolized | Compound NOT metabolized | Compound NOT metabolized | Compound NOT metabolized | Compound NOT metabolized | Compound NOT metabolized | Compound NOT metabolized | Compound NOT metabolized | Compound NOT metabolized |
| Nc1ccc(/N=N/c2ccccc2)c(N)n1 [PHENAZOPYRIDINE] | Compound metabolized | Compound metabolized | Compound metabolized | Compound metabolized | Compound metabolized | Compound metabolized | Compound metabolized | Compound metabolized | Compound metabolized | Compound metabolized | Compound metabolized | Compound metabolized | Compound metabolized | Compound metabolized | Compound metabolized | Compound metabolized | Compound metabolized | Compound metabolized | Compound metabolized | Compound metabolized |
